# Test results from the Biogen ADME set (Fang et al. 2023).
# Details: for aqueous solubility: pH 6.8
Compound,MDR1-MDCK efflux ratio,"intrinsic clearance, human liver microsomes [mL/min/kg]","intrinsic clearance, rat liver microsomes [mL/min/kg]",aqueous solubility [µg/mL],"fraction unbound, human plasma","fraction unbound, rat plasma"
N#Cc1c(O)nc2scc(-c3ccc(-c4ccccc4O)cc3)c2c1O,1.19,11.2,≤ 10.7,58.8,,
COc1cccc(-c2nc(C(=O)O)cs2)c1OC,0.916,≤ 4.74,≤ 10.7,37.7,,
CCN1CCN(c2ccc(NC(=O)c3ncoc3-c3ccc4ccccc4c3)cc2)CC1,,19.1,296,1.02,,
COc1cc(Nc2c(C#N)cnc3cc(OCCCN4CCN(C)CC4)c(OC)cc23)c(Cl)cc1Cl,123,,,,,
CC(C)(C)N1CCCN(C(=O)CNc2ccc(C#N)cc2)CC1,0.887,≤ 4.74,65.3,50,,
Cc1nn(Cc2csc(-c3cccs3)n2)c(N)c1C#N,0.689,19.2,388,39.6,,
Cn1ccc(CN2C(=O)c3ccccc3C2=O)cc1=O,1.9,≤ 4.74,12.1,50,,
Cc1c(C(=O)NCCCN(C)C)sc2ncnc(Nc3ccc(F)cc3OC(C)C)c12,59.2,≤ 4.74,52.4,23.6,0.0552,0.0926
Cc1ccc(C)c(OCCC(=O)N2CCC(n3c(=O)[nH]c4ccccc43)CC2)c1,,421,6460,,,
CCCn1cc(NC(=O)Nc2ccc(N3CCSCC3)cc2)cn1,7.18,44.4,808,,,
Cc1cccc(NCCc2cn3c(n2)CCCC3)n1,3.58,≤ 4.74,971,31,,
O=C(Nc1ccc2c(c1)OCCCO2)c1cnn(Cc2ccccc2)c1,0.64,6.05,492,16.5,,
O=c1c(CO)cc2cc3c(cc2n1Cc1ccccn1)CCC3,1.39,12.6,1170,,,
CN(Cc1cnn(C)c1)c1ncnc2c1oc1ccccc12,0.969,19.7,505,42.5,,
COc1cc(Br)c2c(=O)[nH]c(C)nc2c1,0.691,13.9,148,,,
COc1ccc(C(=O)Cn2c(=O)n(-c3ccccc3F)c3nc(C)nc(C(N)=O)c32)cc1,1.46,≤ 4.74,76,3.69,,
Cc1ccc(-n2ccnc2-c2ccoc2)c2cccnc12,0.946,55.1,579,19.9,,
CCc1nnc(Oc2cccnc2)c(C#N)c1CC,0.781,4.94,21.6,30.5,,
O=C(NC[C@@H]1CCN(c2ccccc2)C1)N1CCc2ccccc2C1,0.706,170,2160,11.9,,
Cc1cnc(-n2cnnc2)c(-c2cccc(Cl)c2Cl)c1,2.25,6.9,165,18.6,,
COc1cc(CNCCN2CCOCC2)cc(Cl)c1OCc1ccccc1,1.94,46.4,330,53.5,,
O=C(C1CC1c1ccccc1F)N1CCC(n2c(=O)[nH]c3ccccc32)CC1 (stereo not given),,47.2,1190,49.9,,
CN1CCCn2c1cc(OCc1cc(F)c(Oc3ccc(C(F)(F)F)nc3)c(F)c1)nc2=O,12,19.6,126,,,
CN(Cc1ccc2c(c1)OCO2)Cc1ccccc1C#N,0.351,87.8,4100,28.1,,
CN(C)C1(CNC(=O)N2CCCC(C)(C)CC2)CCOCC1,16.5,8.43,120,56.9,,
Brc1nnc(N2CCC(OC3CCCC3)CC2)s1,0.582,77.3,3110,,,
O=C(NCCc1c[nH]c2cccc(C3(O)CCOCC3)c12)c1cccs1,,,,65.5,,
